Common to all, as to assay type: functional
A short description of assay [1]: Antibacterial activity against Eberthella typhosa ATCC 14028 after 24 hrs by two-fold microbroth dilution method. The following applies: ATCC 14028, 24 h.
For another assay, the system named is Escherichia coli. Nature of the assay: Antibacterial activity against Escherichia coli JM109 after 24 hrs by two-fold microbroth dilution method. Particulars: JM109, 24 h.
Assay [2] relates to Staphylococcus aureus. In words: Antibacterial activity against Staphylococcus aureus ATCC 25923 after 24 hrs by two-fold microbroth dilution method. The following applies: ATCC 25923, 24 h.
The next assay has as its system Bacillus. Nature of the assay: Antibacterial activity against Bacillus proteus ATCC 13315 after 24 hrs by two-fold microbroth dilution method. The following applies: ATCC 13315, 24 h.
Another assay relates to Candida albicans. Nature of the assay: Antifungal activity against Candida albicans ATCC 10231 after 24 hrs by two-fold microbroth dilution method. Particulars: ATCC 10231, 24 h.
Assay [3] has as its system Staphylococcus aureus. In words: Antibacterial activity against methicillin-resistant Staphylococcus aureus N315 after 24 hrs by two-fold microbroth dilution method. Particulars: N315, 24 h.
Another assay concerns Bacillus spizizenii. In words: Antibacterial activity against Bacillus subtilis ATCC 6633 after 24 hrs by two-fold microbroth dilution method. The following applies: ATCC 6633, 24 h.
The next assay has as its system Pseudomonas aeruginosa. Nature of the assay: Antibacterial activity against Pseudomonas aeruginosa ATCC 27853 after 24 hrs by two-fold microbroth dilution method. Particulars: ATCC 27853, 24 h.
In the next assay the test system is Micrococcus luteus. In words: Antibacterial activity against Micrococcus luteus ATCC 4698 after 24 hrs by two-fold microbroth dilution method. Particulars: NCTC 2665, 24 h.
Another assay deals with Cyberlindnera jadinii. Nature of the assay: Antifungal activity against Candida utilis ATCC 9950 after 24 hrs by two-fold microbroth dilution method. The following applies: Williopsis jadinii, ATCC 9950, 24 h.
The test system of another assay is Saccharomyces cerevisiae. Nature of the assay: Antifungal activity against Saccharomyces cerevisiae ATCC 9763 after 24 hrs by two-fold microbroth dilution method. Particulars: ATCC 9763, 24 h.
A further assay relates to Pichia norvegensis. In words: Antifungal activity against Candida mycoderma ATCC 9888 after 24 hrs by two-fold microbroth dilution method. The following applies: ATCC 9888, 24 h.
The next assay relates to Aspergillus flavus. Nature of the assay: Antifungal activity against Aspergillus flavus ATCC 204304 after 24 hrs by two-fold microbroth dilution method. Particulars: ATCC 204304, 24 h.

Data on 8 compounds can be found in ChEMBL document CHEMBL3994568 (2016).

Converted amounts (≈) assume the structure as drawn.

With `CCCn1c2ccc(-c3csc(N)n3)cc2c2cc(-c3csc(N)n3)ccc21`, the MIC in [1] came out at 256 µg/mL (≈ 631 µM); against Escherichia coli, 256 µg/mL (≈ 631 µM); in the assay with Staphylococcus aureus [2], 128 µg/mL (≈ 316 µM); with Bacillus it was 256 µg/mL (≈ 631 µM); against Candida albicans, 64 µg/mL (≈ 158 µM); against Staphylococcus aureus [3], 256 µg/mL (≈ 631 µM). Further, the MIC in the assay on Bacillus spizizenii was found to be 128 µg/mL (≈ 316 µM); in the assay with Pseudomonas aeruginosa, 128 µg/mL (≈ 316 µM); against Micrococcus luteus it was 128 µg/mL (≈ 316 µM); in the assay with Cyberlindnera jadinii it was 128 µg/mL (≈ 316 µM); against Saccharomyces cerevisiae, 256 µg/mL (≈ 631 µM); with Pichia norvegensis, 256 µg/mL (≈ 631 µM). In the assay with Aspergillus flavus, this compound registered an MIC of 256 µg/mL (≈ 631 µM).
As to `CCCCCCCCn1c2ccc(C(=O)CCl)cc2c2cc(C(=O)CCl)ccc21`, the MIC (in [1]; against Escherichia coli; in the assay with Staphylococcus aureus [2]; in the assay on Bacillus; in the assay on Candida albicans; against Staphylococcus aureus [3]) was 512 µg/mL (≈ 1180 µM) throughout. Also, the MIC was 512 µg/mL (≈ 1180 µM) in the assay with Bacillus spizizenii; 256 µg/mL (≈ 592 µM) in the assay on Pseudomonas aeruginosa; 512 µg/mL (≈ 1180 µM) against Micrococcus luteus; 512 µg/mL (≈ 1180 µM) with Cyberlindnera jadinii; 256 µg/mL (≈ 592 µM) against Saccharomyces cerevisiae; 512 µg/mL (≈ 1180 µM) against Pichia norvegensis. In addition, the minimal inhibitory concentration (MIC) in the assay with Aspergillus flavus came to 512 µg/mL (≈ 1180 µM).
On to `CCCCCCn1c2ccc(-c3csc(N)n3)cc2c2cc(-c3csc(N)n3)ccc21`, for which the MIC in assay [1] is 256 µg/mL (≈ 572 µM); with Escherichia coli, 128 µg/mL (≈ 286 µM); against Staphylococcus aureus [2], 32 µg/mL (≈ 71.5 µM); in the assay with Bacillus it was 256 µg/mL (≈ 572 µM); against Candida albicans it was 256 µg/mL (≈ 572 µM); in the assay on Staphylococcus aureus [3], 64 µg/mL (≈ 143 µM). For the same compound, the MIC against Bacillus spizizenii came to 512 µg/mL (≈ 1140 µM); with Pseudomonas aeruginosa, 32 µg/mL (≈ 71.5 µM); in the assay with Micrococcus luteus, 256 µg/mL (≈ 572 µM); in the assay on Cyberlindnera jadinii, 256 µg/mL (≈ 572 µM); in the assay with Saccharomyces cerevisiae it was 256 µg/mL (≈ 572 µM); against Pichia norvegensis it was 128 µg/mL (≈ 286 µM). In the assay with Aspergillus flavus, the lowest concentration to inhibit growth (MIC) was 512 µg/mL (≈ 1140 µM).
As for `CCCCCCCCn1c2ccc(-c3csc(N)n3)cc2c2cc(-c3csc(N)n3)ccc21`, the MIC in assay [1] was found to be 512 µg/mL (≈ 1080 µM); against Escherichia coli, 512 µg/mL (≈ 1080 µM); in the assay on Staphylococcus aureus [2], 64 µg/mL (≈ 135 µM); against Bacillus, 128 µg/mL (≈ 269 µM); in the assay on Candida albicans, 512 µg/mL (≈ 1080 µM); in the assay on Staphylococcus aureus [3], 32 µg/mL (≈ 67.3 µM). Also, the MIC against Bacillus spizizenii, against Pseudomonas aeruginosa, against Micrococcus luteus, in the assay on Cyberlindnera jadinii, against Saccharomyces cerevisiae and against Pichia norvegensis was 512 µg/mL (≈ 1080 µM) in each case. Moreover, the MIC with Aspergillus flavus was 256 µg/mL (≈ 538 µM).
Regarding `CCCCCCCn1c2ccc(C(=O)CCl)cc2c2cc(C(=O)CCl)ccc21`, the MIC (in assay [1]; with Escherichia coli; against Staphylococcus aureus [2]; against Bacillus; with Candida albicans; against Staphylococcus aureus [3]) was 512 µg/mL (≈ 1220 µM) in each case. The MIC came to 512 µg/mL (≈ 1220 µM) with Bacillus spizizenii; 512 µg/mL (≈ 1220 µM) against Pseudomonas aeruginosa; 512 µg/mL (≈ 1220 µM) in the assay with Micrococcus luteus; 512 µg/mL (≈ 1220 µM) with Cyberlindnera jadinii; 512 µg/mL (≈ 1220 µM) against Saccharomyces cerevisiae; 256 µg/mL (≈ 612 µM) against Pichia norvegensis. In the assay with Aspergillus flavus, 512 µg/mL (≈ 1220 µM) was the least that counted as inhibitory (MIC).
For `CCCCCCn1c2ccc(C(=O)CCl)cc2c2cc(C(=O)CCl)ccc21`, the MIC stood at 256 µg/mL (≈ 633 µM) in assay [1]; 512 µg/mL (≈ 1270 µM) against Escherichia coli; 512 µg/mL (≈ 1270 µM) against Staphylococcus aureus [2]; 16 µg/mL (≈ 39.6 µM) with Bacillus; 512 µg/mL (≈ 1270 µM) in the assay on Candida albicans; 512 µg/mL (≈ 1270 µM) against Staphylococcus aureus [3]. Besides, the MIC against Bacillus spizizenii was determined as 512 µg/mL (≈ 1270 µM); in the assay with Pseudomonas aeruginosa, 16 µg/mL (≈ 39.6 µM); in the assay with Micrococcus luteus, 256 µg/mL (≈ 633 µM); against Cyberlindnera jadinii it was 256 µg/mL (≈ 633 µM); with Saccharomyces cerevisiae, 512 µg/mL (≈ 1270 µM); with Pichia norvegensis it was 256 µg/mL (≈ 633 µM). This compound gave an MIC in the assay with Aspergillus flavus of 512 µg/mL (≈ 1270 µM).
As to `CCCCCn1c2ccc(C(=O)CCl)cc2c2cc(C(=O)CCl)ccc21`, the MIC turned out to be 256 µg/mL (≈ 656 µM) in [1]; 128 µg/mL (≈ 328 µM) in the assay on Escherichia coli; 256 µg/mL (≈ 656 µM) in the assay with Staphylococcus aureus [2]; 512 µg/mL (≈ 1310 µM) with Bacillus; 256 µg/mL (≈ 656 µM) in the assay on Candida albicans; 512 µg/mL (≈ 1310 µM) against Staphylococcus aureus [3]. The MIC amounted to 512 µg/mL (≈ 1310 µM) with Bacillus spizizenii; 128 µg/mL (≈ 328 µM) against Pseudomonas aeruginosa; 512 µg/mL (≈ 1310 µM) with Micrococcus luteus; 128 µg/mL (≈ 328 µM) in the assay with Cyberlindnera jadinii; 128 µg/mL (≈ 328 µM) against Saccharomyces cerevisiae; 256 µg/mL (≈ 656 µM) in the assay with Pichia norvegensis. In the assay on Aspergillus flavus, this compound showed an MIC of 128 µg/mL (≈ 328 µM).
With `CCn1c2ccc(-c3csc(N)n3)cc2c2cc(-c3csc(N)n3)ccc21`, the MIC was 256 µg/mL (≈ 654 µM) in assay [1]; 128 µg/mL (≈ 327 µM) with Escherichia coli; 256 µg/mL (≈ 654 µM) in the assay with Staphylococcus aureus [2]; 256 µg/mL (≈ 654 µM) against Bacillus; 64 µg/mL (≈ 163 µM) in the assay with Candida albicans; 512 µg/mL (≈ 1310 µM) in the assay with Staphylococcus aureus [3]. Also, the MIC against Bacillus spizizenii amounted to 256 µg/mL (≈ 654 µM); against Pseudomonas aeruginosa it was 256 µg/mL (≈ 654 µM); in the assay with Micrococcus luteus, 128 µg/mL (≈ 327 µM); against Cyberlindnera jadinii it was 128 µg/mL (≈ 327 µM); in the assay on Saccharomyces cerevisiae, 256 µg/mL (≈ 654 µM); with Pichia norvegensis, 64 µg/mL (≈ 163 µM). For the same compound, the lowest concentration to inhibit growth in the assay on Aspergillus flavus (MIC) was 256 µg/mL (≈ 654 µM).
